Laboratory results: patent US20230181905A1, “Systems, Devices, and Methods for Enhancing the Neuroprotective Effects of Non-Invasive Gamma Stimulation with Pharmacological Agents” (Massachusetts Institute of Technology, priority 2021, published 2023)

Test system: amyloid
Assay: Amyloid immunohistochemistry in APP.PS1 mice
Type: in vivo, mouse
Settings: 11-month-old APP.PS1 mice
Experimental: 11-month-old APP.PS1 mice were either a) untreated as control, b) treated with GENUS alone (40 Hz light flicker delivered for 1 hour/day for 30 days), or c) a combination of GENUS (40 Hz delivered for 1 hour/day for 30 days) and levetiracetam (10 mg/kg body weight, intraperitoneal injection daily for 30 days), an agent shown to offer benefits in AD model mice. After the treatment mice were transcardially perfused with ice cold phosphate buffered saline (PBS) followed by 4% paraformaldehyde in PBS. Forty micron brain slices were prepared, and immunohistochemistry was then performed to evaluate the amyloid levels.

CC[C@@H](C(N)=O)N1CCCC1=O [levetiracetam]
amyloid levels in the visual cortex relative to treatment with GENUS alone (levetiracetam 10 mg/kg i.p. daily 30 days co-administered with GENUS): higher | effect of GENUS on amyloid levels (levetiracetam 10 mg/kg i.p. daily 30 days co-administered with GENUS 1 hour/day): dampened or attenuated
